The values below come from patent US20030083469A1, “Allosteric control of nuclear hormone receptors” (The Salk Institute for Biological Studies, priority 1995, published 2003).

The target of one assay is T1, RXR-T3R heterodimer (Homo sapiens, UniProt P19793).
T1 construct: made in house
T1 sequence (P19793 1-462): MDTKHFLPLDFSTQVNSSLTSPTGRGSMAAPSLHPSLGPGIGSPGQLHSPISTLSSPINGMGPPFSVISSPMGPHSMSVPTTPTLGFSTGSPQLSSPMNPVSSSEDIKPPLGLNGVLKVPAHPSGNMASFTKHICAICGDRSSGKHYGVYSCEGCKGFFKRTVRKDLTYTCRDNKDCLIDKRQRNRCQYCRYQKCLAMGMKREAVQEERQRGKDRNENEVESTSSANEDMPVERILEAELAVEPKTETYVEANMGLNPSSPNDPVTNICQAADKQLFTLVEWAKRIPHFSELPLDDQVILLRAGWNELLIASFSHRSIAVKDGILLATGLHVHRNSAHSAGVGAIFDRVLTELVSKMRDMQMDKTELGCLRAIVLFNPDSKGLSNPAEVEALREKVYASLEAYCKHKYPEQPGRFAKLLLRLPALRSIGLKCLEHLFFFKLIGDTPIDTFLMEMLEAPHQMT
T1 sequence (P04625 1-408 partner): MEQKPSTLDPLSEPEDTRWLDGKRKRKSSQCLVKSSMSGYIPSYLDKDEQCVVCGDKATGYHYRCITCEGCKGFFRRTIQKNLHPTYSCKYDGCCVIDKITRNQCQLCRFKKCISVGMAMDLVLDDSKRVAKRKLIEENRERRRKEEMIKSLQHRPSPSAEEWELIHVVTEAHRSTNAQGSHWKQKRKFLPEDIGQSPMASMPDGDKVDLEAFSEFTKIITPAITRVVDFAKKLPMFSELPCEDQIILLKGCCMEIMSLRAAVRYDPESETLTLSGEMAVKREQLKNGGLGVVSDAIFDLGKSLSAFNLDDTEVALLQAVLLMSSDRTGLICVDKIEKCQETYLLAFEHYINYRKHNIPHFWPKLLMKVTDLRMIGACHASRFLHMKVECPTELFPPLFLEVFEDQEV
The assay is described as follows: Ligand binding assay with RXR-T3R heterodimer. Set-up: species or system human GST-hRXRα, chicken T3Rα1.

A further assay concerns the target T2, RXR LBD (Homo sapiens, UniProt P19793).
T2 construct: or the human RXRα LBD (Glu 203 -Thr 462); expressed in transfected cells; host or cells: CV-1
T2 sequence (P19793 203-462): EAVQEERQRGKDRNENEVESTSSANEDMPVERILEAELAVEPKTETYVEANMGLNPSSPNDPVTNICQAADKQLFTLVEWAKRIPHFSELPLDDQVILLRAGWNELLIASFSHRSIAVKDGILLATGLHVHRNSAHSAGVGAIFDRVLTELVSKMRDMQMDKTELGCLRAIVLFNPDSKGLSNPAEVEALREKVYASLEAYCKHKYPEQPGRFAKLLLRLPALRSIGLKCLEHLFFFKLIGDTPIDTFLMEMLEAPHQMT
The assay is described as follows: Transient transfection, RXR LBD expressed alone (UASG x4 TK-LUC). It is filed as cell-based. The settings on record: 100 nM LG69. Here is the method: (§1) CV-1 cells were grown in Dulbecco's Modified Eagle's medium supplemented with 10% resin-charcoal stripped (Samuels et al., Endocrinology 105:80-85 (1979)) fetal bovine serum, 50 U/ml penicillin G and 50 μg/ml streptomycin sulfate (DMEM-FBS) at 37° C. in 5% CO2. One day prior to transfection, cells were plated to 50-80% confluence using phenol-red free DMEM-FBS. Cells were transfected by lipofection using N-{2-(2,3)-dioleoyloxy)propyl-N,N,N-trimethyl ammonium methyl sulfate} according to the manufacturer's instructions (DOTAP, Boehringer Mannheim). […] Cells were harvested and assayed for luciferase and β-galactosidase activity. All points were performed in triplicate in each experiment and varied by less than 10%. Each experiment was repeated three or more times with similar results.
(§2) Since RXR serves as a silent partner in the T3R and RAR pathways, it was next investigated whether RXR could serve as an active component in other complexes. To search for such complexes, the LBD of a number of nuclear receptors were fused to the GAL4 DBD, and tested to determine whether the RXR LBD could confer LG69 responsiveness upon these GAL-LBD chimeras. […] Normalized luciferase activity was determined and plotted as fold-activation relative to untreated cells.

A further assay concerns the target T3, GAL-RAR + RXR LBD (Homo sapiens, UniProt P19793).
T3 construct: or the human RXRα LBD (Glu 203 -Thr 462); expressed in transfected cells; host or cells: CV-1
T3 sequence (P19793 203-462): T2 sequence (P19793 203-462)
The assay is described as follows: Transient transfection of GAL-RAR chimera with RXR LBD. It is filed as cell-based. The settings on record: 100 nM LG69. Here is the method: as §1, §2

A further assay deals with T4, GAL-Nurrl + RXR-LBD (Homo sapiens, UniProt P19793).
T4 construct: or the human RXRα LBD (Glu 203 -Thr 462); expressed in transfected cells; host or cells: CV-1
T4 sequence (Q06219 318-598 partner limits assumed, one chain of several): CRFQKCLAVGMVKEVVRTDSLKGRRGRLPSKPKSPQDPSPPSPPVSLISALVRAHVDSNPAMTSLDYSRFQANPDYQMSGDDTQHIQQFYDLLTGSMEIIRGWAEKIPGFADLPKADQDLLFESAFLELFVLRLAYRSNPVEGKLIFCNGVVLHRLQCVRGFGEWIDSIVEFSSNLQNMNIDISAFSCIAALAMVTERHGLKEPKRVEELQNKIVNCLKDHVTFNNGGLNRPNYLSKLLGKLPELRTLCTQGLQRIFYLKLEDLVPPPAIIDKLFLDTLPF
The assay is described as follows: Transient transfection of GAL-Nurrl chimera with RXR LBD. Format: cell-based, mouse Nurrl, human RXRα. The settings on record: RXR-LBD co-expressed with GAL-Nurrl; 100 nM. Here is the method: as §1, §2

Assay [1] addresses T5, Nurrl-RXR heterodimer complex (Homo sapiens, UniProt P19793).
T5 construct: transient transfection analysis of full-length Nurrl and/or RXR; expressed in transfected cells; host or cells: CV-1
The assay is described as follows: Transient transfection of full-length Nurrl and RXR on NBRE x3 TK-LUC. It is filed as cell-based, mouse Nurrl, human RXRα. Here is the method:
One day prior to transfection, cells were plated to 50-80% confluence using phenol-red free DMEM-FBS. Cells were transfected by lipofection using N-{2-(2,3)-dioleoyloxy)propyl-N,N,N-trimethyl ammonium methyl sulfate} according to the manufacturer's instructions (DOTAP, Boehringer Mannheim).
Thus, CV-1 cells were tranfected with NBRE×3 TK-LUC (300 ng/10^5 cells) , CMX-βgal (500 ng/10^5 cells), alone or with CMX-Nurrl (100 ng/10^5 cells) and CMX-hRXRα (100 ng/10^5 cells) as indicated in FIG. 7B. Following transfection, cells were treated with or without 100 nM LG69. Normalized luciferase activity was determined and plotted as reporter activity.
Using sub-optimal amounts of RXR-expression vector, the CRBPII reporter was compared with a 3-copy NBRE reporter as follows. Cells were transfected as described with respect to FIG. 7B, but with a 5-fold lower amount of CMX-hRXRα (20 ng/10^5 cells). CRBPII TK-LUC (300 ng/10^5 cells) was used where indicated.

T5 sequence (Q06219 whole entry partner, one chain of several): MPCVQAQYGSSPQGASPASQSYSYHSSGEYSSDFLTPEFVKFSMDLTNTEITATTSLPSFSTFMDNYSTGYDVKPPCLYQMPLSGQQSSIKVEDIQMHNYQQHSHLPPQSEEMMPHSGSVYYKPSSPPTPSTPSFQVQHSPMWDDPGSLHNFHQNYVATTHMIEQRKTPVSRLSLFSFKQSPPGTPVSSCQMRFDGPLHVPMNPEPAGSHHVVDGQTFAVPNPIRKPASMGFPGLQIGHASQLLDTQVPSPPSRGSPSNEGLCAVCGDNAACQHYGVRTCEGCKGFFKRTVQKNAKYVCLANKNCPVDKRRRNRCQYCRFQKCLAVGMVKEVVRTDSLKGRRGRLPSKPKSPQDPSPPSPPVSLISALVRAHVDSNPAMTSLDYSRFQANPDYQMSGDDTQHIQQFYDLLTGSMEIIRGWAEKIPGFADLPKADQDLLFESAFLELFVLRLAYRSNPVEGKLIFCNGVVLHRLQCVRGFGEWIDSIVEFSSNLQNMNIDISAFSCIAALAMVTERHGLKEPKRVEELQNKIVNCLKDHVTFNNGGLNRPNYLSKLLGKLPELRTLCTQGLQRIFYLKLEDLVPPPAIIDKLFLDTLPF

Consider `CC=C(c1ccc(C(=O)O)cc1)c1cc2c(cc1C)C(C)(C)CCC2(C)C` [LG69, 4-{1-(3,5,5,8,8-pentamethyl-5,6,7,8-tetrahydro-2-napthalenyl)-1-propenyl}benzoic acid], for which the “change in [3H] LG69 binding” value on RXR-T3R heterodimer (T3R with 1 μM T3 added) was “strongly diminished”; on RXR-T3R heterodimer (unliganded T3R), “modest reduction”. Moreover, the LG69 responsiveness entry at RXR LBD and on GAL-RAR + RXR LBD was “not seen” in each case. Further, the responsiveness to ligand entry at GAL-Nurrl + RXR-LBD is on record as “strong responsiveness”. The “responsiveness of the Nurrl-RXR complex” value in assay [1] (Nurrl and RXR co-expressed, NBRE reporter) is listed as “strongly responsive”. Further, in assay [1] (limiting RXR (20 ng/10^5 cells)), the “response of Nurrl-RXR on NBRE reporter” value was “potent response”.
